Converted amounts (≈) assume the structure as drawn. *1 amine or outer side, *2 acyl side, *3 side chain or, on linkers, in order; H or OH if unused. Where a SMILES comes first, the peptide text is derived from it. Bridges are numbered along the chain shown (N, C = ends). [ ]: non-standard residue; d: D form. The star is where a group is joined. TBMB = c1c(C[*:1])cc(C[*:3])cc1C[*:2]; NH(CH2)11CH3 = CCCCCCCCCCCCN*; NHDecyl = CCCCCCCCCCN*
Experiments:
E. faecium (VRE0321) = experiment: microbe, parasite or virus in culture; assay type: cell-based, Enterococcus faecium
Experimental: (§1) Section 4 Biological and biochemical experiments
(§2) 4.1 Minimum inhibitory concentration assay
(§3) MIC values were determined by using the broth microdilution method. Peptides were dissolved first in DMSO and diluted with broth so that the final peptide concentration was 1024 µg/ml and the DMSO concentration was 4%. Peptide serial dilutions were made in TSB in a polypropylene 96-wells plate using 50 µl volumes. An overnight culture of the organism of interest was diluted to and OD600 of 0.01 and grown until they reach 0.5. The culture was then diluted to 1 x 10^6 CFU/ml and 50 µl of this suspension was added to each well. The highest concentrations were then 512 µg/ml peptide and 2% DMSO. The plates were incubated at the preferred growth temperature of the organism that was used and 250 rpm. […] When […]
(§4) determining the MICs of the lipidated peptides, the lipopeptides were first dissolved in DMSO and diluted with TSB so that the peptide concentration was 128 µg/ml and the DMSO concentration was 4%. After inoculation the highest peptide concentration evaluated was 64 µg/ml and the DMSO concentration was 2%. A DMSO control was tested for each strain to ensure the DMSO did not affect the growth of the particular strain. […]

E. faecium (E980) = experiment: microbe, parasite or virus in culture; assay type: cell-based, Enterococcus faecium
Experimental: as §1, §2, §3, §4

E. faecium (VRE2297) = experiment: microbe, parasite or virus in culture; assay type: cell-based, Enterococcus faecium
Experimental: as §1, §2, §3, §4

E. faecium (VRE7391) = experiment: microbe, parasite or virus in culture; assay type: cell-based, Enterococcus faecium
Experimental: as §1, §2, §3, §4

E. faecium (VRE155) = experiment: microbe, parasite or virus in culture; assay type: cell-based, Enterococcus faecium
Experimental: as §1, §2, §3, §4

M. luteus (NCTC2665) = experiment: microbe, parasite or virus in culture; assay type: cell-based, Micrococcus luteus
Experimental: as §1, §2, §3, §4

Sheep blood = experiment: Hemolysis assay; assay type: cell-based
Experimental: Sheep blood in Alsever’s solution (2 mL) was diluted with PBS (13 mL) and centrifuged (2,000 RPM, 5 min). The supernatant was discarded and the cells were washed with another 13 mL of PBS and centrifuged. Washing was continued until the supernatant was clear. After the final wash the supernatant was discarded and the packed cells were kept on ice. Serial dilutions of each peptide were made in 50 µl PBS with the highest tested concentration 64 µg/mL in PBS, 2%
DMSO. The packed cells (150 µL) were suspended in PBS (10 mL) and 50 µL of this suspension was added to each well. A well plate column containing 0.1% triton x-100 in DI water was used as the 100% lysis control and a second column with PBS (with 2% DMSO) served as the 0% lysis control. After incubation at 37°C for 1h the plates were centrifuged (2,000 RPM, 5 min) and 25 µL of the supernatant was added to 100 µL DI water in a flat-bottom 96-wells plate (polystyrene). […]

B. subtilis (168) = experiment: microbe, parasite or virus in culture; assay type: cell-based
Experimental: as §1, §2, §3, §4

S. pyogenes (5448) = experiment: microbe, parasite or virus in culture; assay type: cell-based
Experimental: as §1, §2, §3, §4

S. epidermidis (1587) = experiment: microbe, parasite or virus in culture; assay type: cell-based
Experimental: as §1, §2, §3, §4

[1] = Table 2, vancomycin-resistant isolate from hospitalized patients, broth microdilution in TSB, 16 h, highest tested 64 µg/ml
[2] = Supplemental table S9, MIC values of Table 2 expressed in µM
[3] = Table 2, broth microdilution in TSB, 16 h, read visually, highest tested 64 µg/ml
[4] = Supplemental table S9, vancomycin-resistant isolate, MIC values of Table 2 expressed in µM
[5] = Table 2, broth microdilution in TSB, 16 h, read visually, highest tested 64 µg/ml, 2% DMSO
[6] = Supplemental table S9, 1 hour incubation at 37 °C, lipopeptides at 32 µg/mL
[7] = Supplemental table S7, P8 with varying lipids, broth microdilution

SMILES: CCCCCCCCCCNC(=O)CNC(=O)[C@H]1CSCc2cc3cc(c2)CSC[C@@H](NC(=O)[C@@H](CC(C)C)NC(=O)[C@@H](CC(C)C)NC(=O)[C@@H](CO)NC(=O)[C@@H](CCC(N)=O)NC(=O)[C@@H](CC(C)C)NC(=O)[C@@H](CC(C)C)NC(=O)[C@H](NC(=O)[C@@H](C)N)CSC3)C(=O)N2CCC[C@@H]2C(=O)N[C@H](Cc2ccc(O)cc2)C(=O)N[C@H](CO)C(=O)N[C@H]([C@H](C)O)C(=O)N[C@H](CCCNC(=N)N)C(=O)N[C@H](C)C(=O)N1 [P8-D-(H14R, R15A)-C10] (H-[dA][dC][dL][dL][dQ][dS][dL][dL][dC][dP][dY][dS][dT][dR][dA][dC]G-NHDecyl; linker 2-9-16 via TBMB; N-terminus assumed)
- MIC E. faecium (VRE0321) (E. faecium (VRE0321); [1]): 8–16 μg mL^–1
- MIC E. faecium (E980) (E. faecium (E980); [2]): 31.2 µM (≈ 64 µg/mL)
- MIC E. faecium (E980) (E. faecium (E980); [3]): 32 μg mL^–1
- MIC E. faecium (VRE2297) (E. faecium (VRE2297); [4]): 15.6 µM (≈ 32 µg/mL)
- MIC E. faecium (VRE2297) (E. faecium (VRE2297); [1]): 16 μg mL^–1
- MIC E. faecium (VRE7391) (E. faecium (VRE7391); [1]): 8–16 μg mL^–1
- MIC E. faecium (VRE155) (E. faecium (VRE155); [1]): 8–16 μg mL^–1
- MIC M. luteus (NCTC2665) (M. luteus (NCTC2665); [2]): 3.9 µM (≈ 8.01 µg/mL)
- MIC M. luteus (NCTC2665) (M. luteus (NCTC2665); [5]): 4 μg mL^–1
- Hemolysis (Sheep blood; [6]): 2%
- MIC B. subtilis (168) (B. subtilis (168); [2]): 15.6 µM (≈ 32 µg/mL)
- MIC B. subtilis (168) (B. subtilis (168); [3]): 16 μg mL^–1
- MIC S. pyogenes (5448) (S. pyogenes (5448); [2]): 15.6 µM (≈ 32 µg/mL)
- MIC S. pyogenes (5448) (S. pyogenes (5448); [3]): 16 μg mL^–1
- MIC S. epidermidis (1587) (S. epidermidis (1587); [2]): > 62. 4 µM
- MIC S. epidermidis (1587) (S. epidermidis (1587); [3]): >64 μg mL^–1

SMILES: CCCCCCCCCCNC(=O)CNC(=O)[C@H]1CSCc2cc3cc(c2)CSC[C@@H](NC(=O)[C@@H](CC(C)C)NC(=O)[C@@H](CC(C)C)NC(=O)[C@@H](CO)NC(=O)[C@@H](CCC(N)=O)NC(=O)[C@@H](CC(C)C)NC(=O)[C@@H](CC(C)C)NC(=O)[C@H](NC(=O)[C@@H](C)N)CSC3)C(=O)N[C@H](CCCNC(=N)N)C(=O)N[C@H](Cc2ccc(O)cc2)C(=O)N[C@H](CO)C(=O)N[C@H]([C@H](C)O)C(=O)N[C@H](Cc2c[nH]cn2)C(=O)N[C@H](C)C(=O)N1 [P8-D-(P10R, R15A)-C10] (H-[dA][dC][dL][dL][dQ][dS][dL][dL][dC][dR][dY][dS][dT][dH][dA][dC]G-NHDecyl; linker 2-9-16 via TBMB; N-terminus assumed)
- MIC E. faecium (VRE0321) (E. faecium (VRE0321); [4]): 15.3 µM (≈ 32 µg/mL)
- MIC E. faecium (VRE0321) (E. faecium (VRE0321); [1]): 16 μg mL^–1
- MIC E. faecium (E980) (E. faecium (E980); [2]): 30.6 µM (≈ 64 µg/mL)
- MIC E. faecium (E980) (E. faecium (E980); [3]): 32 μg mL^–1
- MIC E. faecium (VRE2297) (E. faecium (VRE2297); [4]): 30.6 µM (≈ 64 µg/mL)
- MIC E. faecium (VRE2297) (E. faecium (VRE2297); [1]): 32 μg mL^–1
- MIC E. faecium (VRE7391) (E. faecium (VRE7391); [4]): 15.3 µM (≈ 32 µg/mL)
- MIC E. faecium (VRE7391) (E. faecium (VRE7391); [1]): 16 μg mL^–1
- MIC E. faecium (VRE155) (E. faecium (VRE155); [4]): 7.7 µM (≈ 16.1 µg/mL)
- MIC E. faecium (VRE155) (E. faecium (VRE155); [1]): 8 μg mL^–1
- MIC M. luteus (NCTC2665) (M. luteus (NCTC2665); [2]): 3.8 µM (≈ 7.95 µg/mL)
- MIC M. luteus (NCTC2665) (M. luteus (NCTC2665); [5]): 4 μg mL^–1
- Hemolysis (Sheep blood; [6]): 0%
- MIC B. subtilis (168) (B. subtilis (168); [2]): 7.7 µM (≈ 16.1 µg/mL)
- MIC B. subtilis (168) (B. subtilis (168); [3]): 8 μg mL^–1
- MIC S. pyogenes (5448) (S. pyogenes (5448); [2]): 15.3 µM (≈ 32 µg/mL)
- MIC S. pyogenes (5448) (S. pyogenes (5448); [3]): 16 μg mL^–1
- MIC S. epidermidis (1587) (S. epidermidis (1587); [2]): > 61. 2 µM
- MIC S. epidermidis (1587) (S. epidermidis (1587); [3]): >64 μg mL^–1

SMILES: CCCCCCCCCCNC(=O)CNC(=O)[C@H]1CSCc2cc3cc(c2)CSC[C@@H](NC(=O)[C@@H](CC(C)C)NC(=O)[C@@H](CC(C)C)NC(=O)[C@@H](CO)NC(=O)[C@@H](CCC(N)=O)NC(=O)[C@@H](CC(C)C)NC(=O)[C@@H](CC(C)C)NC(=O)[C@H](NC(=O)[C@@H](C)N)CSC3)C(=O)N2CCC[C@@H]2C(=O)N[C@H](Cc2ccc(O)cc2)C(=O)N[C@H](CO)C(=O)N[C@H]([C@H](C)O)C(=O)N[C@H](Cc2c[nH]cn2)C(=O)N[C@H](C)C(=O)N1 [P8-D-(R15A)-C10] (H-[dA][dC][dL][dL][dQ][dS][dL][dL][dC][dP][dY][dS][dT][dH][dA][dC]G-NHDecyl; linker 2-9-16 via TBMB; N-terminus assumed)
- MIC E. faecium (VRE0321) (E. faecium (VRE0321); [1]): 8–16 μg mL^–1
- MIC E. faecium (E980) (E. faecium (E980); [2]): 63.1 µM (≈ 128 µg/mL)
- MIC E. faecium (E980) (E. faecium (E980); [3]): 64 μg mL^–1
- MIC E. faecium (VRE2297) (E. faecium (VRE2297); [4]): > 63. 1 µM
- MIC E. faecium (VRE2297) (E. faecium (VRE2297); [1]): >64 μg mL^–1
- MIC E. faecium (VRE7391) (E. faecium (VRE7391); [4]): > 63. 1 µM
- MIC E. faecium (VRE7391) (E. faecium (VRE7391); [1]): >64 μg mL^–1
- MIC E. faecium (VRE155) (E. faecium (VRE155); [1]): 16 μg mL^–1
- MIC M. luteus (NCTC2665) (M. luteus (NCTC2665); [2]): 3.9 µM (≈ 7.93 µg/mL)
- MIC M. luteus (NCTC2665) (M. luteus (NCTC2665); [5]): 4 μg mL^–1
- MIC M. luteus (NCTC2665) (M. luteus (NCTC2665); Table 2, broth microdilution in TSB, 16 h, read visually, highest tested 64 µg/ml, 2% DMSO, listed as P8-R15A-C10): retained activity
- Hemolysis (Sheep blood; [6]): 0%
- Hemolysis (Sheep blood; Table 2, sheep blood cells in PBS, lipopeptides at 32 μg mL^–1, 1 hour at 37 °C, absorption at 414 nm, 0.1% triton x-100 = 100% lysis, listed as P8-R15A-C10): completely non-hemolytic
- MIC B. subtilis (168) (B. subtilis (168); [2]): > 63.1 µM
- MIC B. subtilis (168) (B. subtilis (168); [3]): >64 μg mL^–1
- MIC S. pyogenes (5448) (S. pyogenes (5448); [3]): 16 μg mL^–1
- MIC S. epidermidis (1587) (S. epidermidis (1587); [2]): > 63. 1 µM
- MIC S. epidermidis (1587) (S. epidermidis (1587); [3]): >64 μg mL^–1

SMILES: CCCCCCCCCCCCNC(=O)CNC(=O)[C@H]1CSCc2cc3cc(c2)CSC[C@@H](NC(=O)[C@@H](CC(C)C)NC(=O)[C@@H](CC(C)C)NC(=O)[C@@H](CO)NC(=O)[C@@H](CCC(N)=O)NC(=O)[C@@H](CC(C)C)NC(=O)[C@@H](CC(C)C)NC(=O)[C@H](NC(=O)[C@@H](C)N)CSC3)C(=O)N2CCC[C@@H]2C(=O)N[C@H](Cc2ccc(O)cc2)C(=O)N[C@H](CO)C(=O)N[C@H]([C@H](C)O)C(=O)N[C@H](Cc2c[nH]cn2)C(=O)N[C@H](CCCNC(=N)N)C(=O)N1 [Peptide P8-D-C12] (H-[dA][dC][dL][dL][dQ][dS][dL][dL][dC][dP][dY][dS][dT][dH][dR][dC]G-{NH(CH2)11CH3}; linker 2-9-16 via TBMB; N-terminus assumed)
- MIC VRE E155 (E. faecium (VRE155); [7]): 8 µg/mL (≈ 3.73 µM)
- MIC M. luteus (M. luteus (NCTC2665); [7]): 4 to 8 µg/mL
- Hemolysis 32 µg/ml (after 1 h) (Sheep blood; Supplemental table S7, sheep blood cells in PBS, 32 µg/ml, 1 h at 37°C, absorption at 414 nm): 9%

Reference: PMC5853558, “De novo identification of lipid II binding lipopeptides with antibacterial activity against vancomycin-resistant bacteria” (Chemical Science, 2017)
